Results from patent publication US11235976B2, “Nanocarbon-iron composite system as well as composition, preparation method and use thereof” (Chongqing Lummy Pharmaceutical Co., LTD, priority 2017, dated 2022).

Tests used:
[1] = test system: HCT116 colon cancer cells; assay: Cell experiment, cell survival rate; format: cell-based; details: 48 h
Method: (§1) Cells growing in a log phase are collected, the concentration of the cell suspension is adjusted, 100 μL of cell suspension is added to each well and the cells are plated (edge wells are filled with sterile PBS) at a density of 1×10^3-10^4 cells/well. The cells are incubated for 24 hours at 37° C. under the condition of 5% CO2, a nanocarbon-iron solution having a concentration gradient (nanocarbon content: 125, 62.5, 15.63 and 3.91 μg/mL; and ferric ion content: 13.65, 6.83, 1.71 and 0.43 μg/mL) is added, and three sub-wells are set. Then the cells are incubated for 48 hours at 37° C. under the condition of 5% CO2. 10 μL of CCK8 solution is added to each well and then the cells are continuously incubated for 2 hours. The absorbance of each well is measured at OD=450 nm with the microplate reader. In addition, a negative control group, nanocarbon control groups having the same concentration and iron preparation control groups having the same concentration are set.
as §1, with “and 1” for “100”, “of a 6-well plate” for “and the cells are plated (edge wells are filled with sterile PBS)”, “3×10^4” for “1×10^3-10^4”, “1.71,” for “1.71 and”, “The” for “10 μL of CCK8 solution is added to each well and then the”, “trypsinized and counted.” for “continuously incubated for 2 hours. The absorbance of each well is measured at OD=450 nm with the microplate reader.”

[2] = test system: SGC-7901 stomach cancer cells; assay: Cell experiment, cell survival rate; format: cell-based; details: 48 h
Method: as §1
as §1, with “and 1” for “100”, “of a 6-well plate” for “and the cells are plated (edge wells are filled with sterile PBS)”, “3×10^4” for “1×10^3-10^4”, “1.71,” for “1.71 and”, “The” for “10 μL of CCK8 solution is added to each well and then the”, “trypsinized and counted.” for “continuously incubated for 2 hours. The absorbance of each well is measured at OD=450 nm with the microplate reader.”

[3] = test system: TPC-1 thyroid cancer cells; assay: Cell experiment, cell survival rate; format: cell-based; details: 48 h
Method: as §1
as §1, with “and 1” for “100”, “of a 6-well plate” for “and the cells are plated (edge wells are filled with sterile PBS)”, “3×10^4” for “1×10^3-10^4”, “1.71,” for “1.71 and”, “The” for “10 μL of CCK8 solution is added to each well and then the”, “trypsinized and counted.” for “continuously incubated for 2 hours. The absorbance of each well is measured at OD=450 nm with the microplate reader.”

A549 lung cancer cells = assay: Cell experiment, cell survival rate; format: cell-based; details: 48 h
Method: as §1
as §1, with “and 1” for “100”, “of a 6-well plate” for “and the cells are plated (edge wells are filled with sterile PBS)”, “3×10^4” for “1×10^3-10^4”, “1.71,” for “1.71 and”, “The” for “10 μL of CCK8 solution is added to each well and then the”, “trypsinized and counted.” for “continuously incubated for 2 hours. The absorbance of each well is measured at OD=450 nm with the microplate reader.”

[4] = test system: SMMC7721 liver cancer cells; assay: Cell experiment, cell survival rate; format: cell-based; details: SMMC-7721, 48 h
Method: as §1
as §1, with “and 1” for “100”, “of a 6-well plate” for “and the cells are plated (edge wells are filled with sterile PBS)”, “3×10^4” for “1×10^3-10^4”, “1.71,” for “1.71 and”, “The” for “10 μL of CCK8 solution is added to each well and then the”, “trypsinized and counted.” for “continuously incubated for 2 hours. The absorbance of each well is measured at OD=450 nm with the microplate reader.”

[5] = test system: Hela cervical cancer cells; assay: Cell experiment, cell survival rate; format: cell-based; details: 48 h
Method: as §1
as §1, with “and 1” for “100”, “of a 6-well plate” for “and the cells are plated (edge wells are filled with sterile PBS)”, “3×10^4” for “1×10^3-10^4”, “1.71,” for “1.71 and”, “The” for “10 μL of CCK8 solution is added to each well and then the”, “trypsinized and counted.” for “continuously incubated for 2 hours. The absorbance of each well is measured at OD=450 nm with the microplate reader.”

[6] = test system: MDA-MB-231 breast cancer cells; assay: Cell experiment, cell survival rate; format: cell-based; details: 48 h
Method: as §1
as §1, with “and 1” for “100”, “of a 6-well plate” for “and the cells are plated (edge wells are filled with sterile PBS)”, “3×10^4” for “1×10^3-10^4”, “1.71,” for “1.71 and”, “The” for “10 μL of CCK8 solution is added to each well and then the”, “trypsinized and counted.” for “continuously incubated for 2 hours. The absorbance of each well is measured at OD=450 nm with the microplate reader.”

[7] = test system: SKOV3 ovarian cancer cells; assay: Cell experiment, cell survival rate; format: cell-based; details: 48 h
Method: as §1
as §1, with “and 1” for “100”, “of a 6-well plate” for “and the cells are plated (edge wells are filled with sterile PBS)”, “3×10^4” for “1×10^3-10^4”, “1.71,” for “1.71 and”, “The” for “10 μL of CCK8 solution is added to each well and then the”, “trypsinized and counted.” for “continuously incubated for 2 hours. The absorbance of each well is measured at OD=450 nm with the microplate reader.”

[8] = test system: murine liver cancer H22 cells; assay: Cell experiment, cell survival rate; format: cell-based; details: 48 h
Method: as §1
as §1, with “and 1” for “100”, “of a 6-well plate” for “and the cells are plated (edge wells are filled with sterile PBS)”, “3×10^4” for “1×10^3-10^4”, “1.71,” for “1.71 and”, “The” for “10 μL of CCK8 solution is added to each well and then the”, “trypsinized and counted.” for “continuously incubated for 2 hours. The absorbance of each well is measured at OD=450 nm with the microplate reader.”

[9] = test system: TPC-1 metastatic lymph nodes; assay: Lymph node metastasis inhibition experiment; format: in vivo, nude mouse; details: popliteal lymph nodes
Method: (§2) Cells growing in a log phase are collected, the concentration of the cell suspension is adjusted to 3×10^7 cells/mL, the cell suspension is inoculated subcutaneously into the left hind foot pads of each nude mouse at the inoculation volume of 0.05 mL (about 1.5×10^6 cells) and thus a lymph node metastasis mouse model is obtained. The mice are treated when the diameter of the tumor reaches 6-8 mm and there is no ulcer and necrosis. The mice are randomly divided into four groups (10 mice per group): a negative control group (0.9% sodium chloride injection), a nanocarbon control group, an iron preparation control group and a nanocarbon-iron suspension experimental group. 10 days after inoculation, the mice are killed, and popliteal lymph nodes are collected, weighed and fixed for pathological examination.

[10] = test system: SKOV3 metastatic lymph nodes; assay: Lymph node metastasis inhibition experiment; format: in vivo, nude mouse; details: popliteal lymph nodes
Method: as §2

[11] = test system: MDA-MB-231 metastatic lymph nodes; assay: Lymph node metastasis inhibition experiment; format: in vivo, nude mouse; details: popliteal lymph nodes
Method: as §2

[12] = test system: SMMC-7721 metastatic lymph nodes; assay: Lymph node metastasis inhibition experiment; format: in vivo, nude mouse; details: popliteal lymph nodes
Method: as §2

[13] = test system: Hela metastatic lymph nodes; assay: Lymph node metastasis inhibition experiment; format: in vivo, nude mouse; details: popliteal lymph nodes
Method: as §2

[14] = test system: HCT116 metastatic lymph nodes; assay: Lymph node metastasis inhibition experiment; format: in vivo, nude mouse; details: popliteal lymph nodes
Method: as §2

[15] = test system: A549 metastatic lymph nodes; assay: Lymph node metastasis inhibition experiment; format: in vivo, nude mouse; details: popliteal lymph nodes
Method: as §2

[16] = test system: SGC-7901 metastatic lymph nodes; assay: Lymph node metastasis inhibition experiment; format: in vivo, nude mouse; details: popliteal lymph nodes
Method: as §2

[17] = test system: subcutaneous transplantation tumors of 9 types of cancer cells; assay: Tumor growth inhibition experiments, subcutaneous transplantation tumors; format: in vivo, mice; details: FIGS. 4-39
Method: Cells growing in a log phase are collected, the concentration of the cell suspension is adjusted to 3×10^7 cells/mL, and the cell suspension is inoculated subcutaneously into the right upper extremities of nude mice at the inoculation dosage of 0.1 mL (about 3×10^6 cells) per mouse. When the average tumor volume of the inoculated mice reaches 100 mm^3, the tumor-bearing mice are randomly divided into the following groups (8 nude mice per group): a negative control group (0.9% sodium chloride injection), a nanocarbon control group, an iron preparation control group, a nanocarbon-iron suspension experimental group, and a cis-platinum control group (intraperitoneal injection at the dosage of 5 mg/kg). The above various drugs are injected into the tumors. The tumor volume changes are recorded, and the formula for calculating the volume is Volume=(length×the square of width)/2.
Milky white and thick ascites is extracted from the H22 tumor-bearing mice, the concentration of the cell suspension is adjusted to be 3×10^7 cells/mL, 0.1 mL of cell suspension (about 3×10^6 cells) is inoculated subcutaneously into the right upper extremity of each of Kunming mice. When the average tumor volume of the inoculated mice reaches 100 mm^3, the tumor-bearing mice are randomly divided into the following groups (8 mice per group): a negative control group (0.9% sodium chloride injection), a nanocarbon control group, an iron preparation control group, a nanocarbon-iron suspension experimental group, and a cis-platinum control group (intraperitoneal injection at the dosage of 5 mg/kg). The above various drugs are injected into the tumors. The tumor volume changes are recorded, and the formula for calculating the volume is Volume=(length×the square of width)/2.

[18] = test system: lymph node metastasis of 9 types of tumor cells; assay: Lymph node metastasis inhibition experiment, summary; format: in vivo, mice
Method: as §2
(§3) Milky white and thick ascites is extracted from the H22 tumor-bearing mice, the concentration is adjusted to be 3×10^7 cells/mL, 0.05 mL of cell suspension (about 1.5×10^6 cells) is inoculated subcutaneously into the left hind foot pads of each Kunming mouse, and thus a lymph node metastasis mouse model is obtained. The mice are treated when the diameter of the tumor reaches 6-8 mm and there is no ulcer and necrosis. The mice are randomly divided into four groups (10 mice per group): a negative control group (0.9% sodium chloride injection), a nanocarbon control group, an iron preparation control group and a nanocarbon-iron suspension experimental group. 10 days after inoculation, the mice are killed, and popliteal lymph nodes are collected, weighed and fixed for pathological examination.

[19] = test system: H22 metastatic lymph nodes; assay: Lymph node metastasis inhibition experiment; format: in vivo, Kunming mouse; details: popliteal lymph nodes
Method: as §3

[20] = iron preparation alone 0.43 μg/mL
[21] = iron preparation alone 1.71 μg/mL
[22] = iron preparation alone 6.83 μg/mL
[23] = iron preparation alone 13.65 μg/mL

## ammonium ferric citrate
[1]; [20]
  Cell Survival Rate: 97.31%
[1]; [21]
  Cell Survival Rate: 98.12%
[1]; [22]
  Cell Survival Rate: 94.03%
[1]; [23]
  Cell Survival Rate: 95.31%
[2]; [20]
  Cell Survival Rate: 97.85%
[2]; [21]
  Cell Survival Rate: 95.31%
[2]; [22]
  Cell Survival Rate: 96.41%
[2]; [23]
  Cell Survival Rate: 100%
[3]; [20]
  Cell Survival Rate: 97.30%
[3]; [21]
  Cell Survival Rate: 96.41%
[3]; [22]
  Cell Survival Rate: 100%
[3]; [23]
  Cell Survival Rate: 100%
A549 lung cancer cells; [20]
  Cell Survival Rate: 97.21%
A549 lung cancer cells; [21]
  Cell Survival Rate: 99.64%
A549 lung cancer cells; [22]
  Cell Survival Rate: 95.76%
A549 lung cancer cells; [23]
  Cell Survival Rate: 94.67%
[4]; [20]
  Cell Survival Rate: 100%
[4]; [21]
  Cell Survival Rate: 98.43%
[4]; [22]
  Cell Survival Rate: 94.19%
[4]; [23]
  Cell Survival Rate: 100%
[5]; [20]
  Cell Survival Rate: 100%
[5]; [21]
  Cell Survival Rate: 99.34%
[5]; [22]
  Cell Survival Rate: 97.46%
[5]; [23]
  Cell Survival Rate: 93.67%
[6]; [20]
  Cell Survival Rate: 100%
[6]; [21]
  Cell Survival Rate: 100%
[6]; [22]
  Cell Survival Rate: 97.28%
[6]; [23]
  Cell Survival Rate: 95.12%
[7]; [20]
  Cell Survival Rate: 95.67%
[7]; [21]
  Cell Survival Rate: 99.46%
[7]; [22]
  Cell Survival Rate: 94.36%
[7]; [23]
  Cell Survival Rate: 100%
[8]; [20]
  Cell Survival Rate: 96.21%
[8]; [21]
  Cell Survival Rate: 97.64%
[8]; [22]
  Cell Survival Rate: 95.12%
[8]; [23]
  Cell Survival Rate: 100%
[9]
  Weight of Lymph Node: 41.97 ± 20.12 mg
[10]
  Weight of Lymph Node: 32.98 ± 6.42 mg
[11]
  Weight of Lymph Node: 46.97 ± 10.36 mg
[12]
  Weight of Lymph Node: 56.98 ± 17.59 mg
[13]
  Weight of Lymph Node: 30.94 ± 10.68 mg
[14]
  Weight of Lymph Node: 49.57 ± 20.67 mg
[15]
  Weight of Lymph Node: 45.67 ± 10.68 mg
[16]
  Weight of Lymph Node: 43.69 ± 8.97 mg
[17]
  inhibition effect on growth of 9 types of tumors: do not have an inhibition effect
[18]
  inhibition effect on the metastatic lymph nodes: do not have an inhibition effect
[19]
  Weight of Lymph Node: 53.94 ± 11.58 mg
